Where two headings read alike, the source gives them in different places.
What was measured:
Type in all cases: in vivo
Kochia (Kochia scoparia) [1] = experiment: Test A preemergence; settings: Bassia scoparia, pre-emergence, 240 h, preemergence, read-out: Kochia plant response rating; for pest or weed control at 125 g/ha: 125 g ai/ha; for pest or weed control at 500 g/ha: 500 g ai/ha
Method in brief: (§1)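 Each rating is a visual injury score from 0 to 100 given about 10 d after treatment, judged against untreated controls kept alongside in the greenhouse. In loam soil–sand blend, seeds got a preemergence directed soil spray, while postemergence plants were 2 to 10 cm tall at spraying.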

[2] = tested on: Galium (catchweed bedstraw, Galium aparine); experiment: Test A postemergence; settings: Galium, post-emergence, 240 h; for pest or weed control at 125 g/ha: 125 g ai/ha; for pest or weed control at 500 g/ha: 500 g ai/ha, 0 to 100 scale, 0 is no effect, 100 is complete control, read-out: Galium plant response rating
Method in brief: as §1

Kochia (Kochia scoparia) [3] = experiment: Test A postemergence; settings: Bassia scoparia, post-emergence, 240 h; for pest or weed control at 125 g/ha: 125 g ai/ha; for pest or weed control at 500 g/ha: 500 g ai/ha, 0 to 100 scale, 0 is no effect, 100 is complete control, read-out: Kochia plant response rating
Method in brief: as §1

[4] = tested on: barnyardgrass (Echinochloa crus-galli); experiment: Test A postemergence; settings: Echinochloa crus-galli, post-emergence, 240 h; for pest or weed control at 125 g/ha: 125 g ai/ha; for pest or weed control at 500 g/ha: 500 g ai/ha, 0 to 100 scale, 0 is no effect, 100 is complete control, read-out: Barnyardgrass plant response rating
Method in brief: as §1

[5] = tested on: blackgrass (Alopecurus myosuroides); experiment: Test A postemergence; settings: Alopecurus myosuroides, post-emergence, 240 h; for pest or weed control at 125 g/ha: 125 g ai/ha; for pest or weed control at 500 g/ha: 500 g ai/ha, 0 to 100 scale, 0 is no effect, 100 is complete control, read-out: Blackgrass plant response rating
Method in brief: as §1

corn (Zea mays) = experiment: Test A postemergence; settings: Zea mays, post-emergence, 240 h; for plant injury at 125 g/ha / plant injury at 500 g/ha: postemergence; for plant injury at 125 g/ha: visual injury vs untreated controls after approx. 10 d, 0 = no effect, 100 = complete control, read-out: Corn plant response rating (0 to 100 scale); for plant injury at 500 g/ha: 500 g ai/ha, 0 to 100 scale, 0 is no effect, 100 is complete control, read-out: Corn plant response rating
Method in brief: as §1

[6] = tested on: giant foxtail (Setaria faberii); experiment: Test A postemergence; settings: Setaria faberi, post-emergence, 240 h; for pest or weed control at 125 g/ha: 125 g ai/ha; for pest or weed control at 500 g/ha: 500 g ai/ha, 0 to 100 scale, 0 is no effect, 100 is complete control, read-out: Foxtail, Giant plant response rating
Method in brief: as §1

[7] = tested on: pigweed (Amaranthus retroflexus); experiment: Test A postemergence; settings: Amaranthus retroflexus, post-emergence, 240 h; for pest or weed control at 125 g/ha: 125 g ai/ha; for pest or weed control at 500 g/ha: 500 g ai/ha, 0 to 100 scale, 0 is no effect, 100 is complete control, read-out: Pigweed plant response rating
Method in brief: as §1

[8] = tested on: ragweed (common ragweed, Ambrosia elatior); experiment: Test A postemergence; settings: Ambrosia artemisiifolia, post-emergence, 240 h; for pest or weed control at 125 g/ha: 125 g ai/ha; for pest or weed control at 500 g/ha: 500 g ai/ha, 0 to 100 scale, 0 is no effect, 100 is complete control, read-out: Ragweed plant response rating
Method in brief: as §1

[9] = tested on: ryegrass, Italian (Italian ryegrass, Lolium multiflorum); experiment: Test A postemergence; settings: Lolium multiflorum, post-emergence, 240 h; for pest or weed control at 125 g/ha: 125 g ai/ha; for pest or weed control at 500 g/ha: 500 g ai/ha, 0 to 100 scale, 0 is no effect, 100 is complete control, read-out: Ryegrass, Italian plant response rating
Method in brief: as §1

[10] = tested on: wheat (Triticum aestivum); experiment: Test A postemergence; settings: Triticum aestivum, post-emergence, 240 h; for plant injury at 125 g/ha: 125 g ai/ha
Method in brief: as §1

[11] = tested on: barnyardgrass (Echinochloa crus-galli); experiment: Test B flooded paddy test; settings: Echinochloa crus-galli, 250 g ai/ha, Flood, read-out: Barnyardgrass plant response rating
Method in brief: (§2)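 Visual ratings (0 none to 100 complete control) are relative to untreated plants, taken 13–15 d after treatment in a greenhouse. Test material went straight into floodwater standing 3 cm above the soil, kept constant, on plants at the 2-leaf stage.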

[12] = tested on: ducksalad (Heteranthera limosa); experiment: Test B flooded paddy test; settings: Heteranthera limosa, 250 g ai/ha, Flood, read-out: Ducksalad plant response rating
Method in brief: as §2

rice (Oryra sativa) = experiment: Test B flooded paddy test; settings: Oryza sativa, 250 g ai/ha, Flood, read-out: Rice plant response rating
Method in brief: as §2

[13] = tested on: sedge, umbrella (small-flower umbrella sedge, Cyperus difformis); experiment: Test B flooded paddy test; settings: Cyperus difformis, 250 g ai/ha, Flood, read-out: Sedge, Umbrella plant response rating
Method in brief: as §2

[14] = visual injury rating, 0 to 100 scale where 0 is no effect and 100 is complete control, approximately 10 d
[15] = 0 to 100 scale where 0 is no effect and 100 is complete control
[16] = postemergence, visual injury vs untreated controls after approx. 10 d, 0 = no effect, 100 = complete control, read-out: Galium plant response rating (0 to 100 scale)
[17] = postemergence, visual injury vs untreated controls after approx. 10 d, 0 = no effect, 100 = complete control, read-out: Kochia plant response rating (0 to 100 scale)
[18] = postemergence, visual injury vs untreated controls after approx. 10 d, 0 = no effect, 100 = complete control, read-out: Barnyardgrass plant response rating (0 to 100 scale)
[19] = postemergence, visual injury vs untreated controls after approx. 10 d, 0 = no effect, 100 = complete control, read-out: Blackgrass plant response rating (0 to 100 scale)
[20] = postemergence, visual injury vs untreated controls after approx. 10 d, 0 = no effect, 100 = complete control, read-out: Foxtail, Giant plant response rating (0 to 100 scale)
[21] = postemergence, visual injury vs untreated controls after approx. 10 d, 0 = no effect, 100 = complete control, read-out: Pigweed plant response rating (0 to 100 scale)
[22] = postemergence, visual injury vs untreated controls after approx. 10 d, 0 = no effect, 100 = complete control, read-out: Ragweed plant response rating (0 to 100 scale)
[23] = postemergence, visual injury vs untreated controls after approx. 10 d, 0 = no effect, 100 = complete control, read-out: Ryegrass, Italian plant response rating (0 to 100 scale)
[24] = postemergence, visual injury vs untreated controls after approx. 10 d, 0 = no effect, 100 = complete control, read-out: Wheat plant response rating (0 to 100 scale)
[25] = scale of 0 to 100 where 0 is no effect and 100 is complete control

`Cc1cc([C@H]2CN(C)C(=O)[C@@H]2C(=O)Nc2ccccc2F)no1` [Compound 1194] was tested, and the pest or weed control at 125 g/ha (Kochia (Kochia scoparia) [1]; [14]) was 0%, the pest or weed control at 500 g/ha (Kochia (Kochia scoparia) [1]; [15]) was 0% and the pest or weed control at 125 g/ha [2, 16] was 0%. It also gave a pest or weed control at 500 g/ha ([2]; postemergence) of 0%, a pest or weed control at 125 g/ha (Kochia (Kochia scoparia) [3]; [17]) of 0% and a pest or weed control at 500 g/ha (Kochia (Kochia scoparia) [3]; postemergence) of 0%. The pest or weed control at 125 g/ha [4, 18] was 0%, the pest or weed control at 500 g/ha ([4]; postemergence) was 20% and the pest or weed control at 125 g/ha [5, 19] was 0%. For the same compound, the pest or weed control at 500 g/ha ([5]; postemergence) was 0%, the plant injury at 125 g/ha (corn (Zea mays); 125 g ai/ha) was 0% and the plant injury at 500 g/ha (corn (Zea mays)) was 0%. The pest or weed control at 125 g/ha [6, 20] was 0%, the pest or weed control at 500 g/ha ([6]; postemergence) was 20% and the pest or weed control at 125 g/ha [7, 21] was 0%. It also gave a pest or weed control at 500 g/ha ([7]; postemergence) of 0%, a pest or weed control at 125 g/ha [8, 22] of 0% and a pest or weed control at 500 g/ha ([8]; postemergence) of 0%. For the same compound, the pest or weed control at 125 g/ha [9, 23] was 0%, the pest or weed control at 500 g/ha ([9]; postemergence) was 0% and the plant injury at 125 g/ha [10, 24] was 0%. It also gave a plant injury at 500 g/ha ([10]; 500 g ai/ha, postemergence, 0 to 100 scale, 0 is no effect, 100 is complete control, read-out: Wheat plant response rating) of 0%, a pest or weed control at 250 g/ha [11, 15] of 0% and a pest or weed control at 250 g/ha [12, 15] of 0%. The pest or weed control at 250 g/ha (rice (Oryra sativa); [15]) was 0% and the pest or weed control at 250 g/ha [13, 15] was 0%.

Compound `O=C1NC[C@H](c2ccc(C(F)(F)F)cc2)C1C(=O)Nc1c(F)cccc1CO` (stereo partly shown) [Compound 1243] has a pest or weed control at 125 g/ha (Kochia (Kochia scoparia) [1]; [14]) of 0%, a pest or weed control at 500 g/ha (Kochia (Kochia scoparia) [1]; [15]) of 0% and a pest or weed control at 125 g/ha [2, 16] of 0%. The pest or weed control at 500 g/ha ([2]; postemergence) was 0%, the pest or weed control at 125 g/ha (Kochia (Kochia scoparia) [3]; [17]) was 0% and the pest or weed control at 500 g/ha (Kochia (Kochia scoparia) [3]; postemergence) was 0%. It also gave a pest or weed control at 125 g/ha [4, 18] of 0%, a pest or weed control at 500 g/ha ([4]; postemergence) of 0% and a pest or weed control at 125 g/ha [5, 19] of 0%. For the same compound, the pest or weed control at 500 g/ha ([5]; postemergence) was 0%, the plant injury at 125 g/ha (corn (Zea mays); 125 g ai/ha) was 0% and the plant injury at 500 g/ha (corn (Zea mays)) was 0%. The pest or weed control at 125 g/ha [6, 20] was 0%, the pest or weed control at 500 g/ha ([6]; postemergence) was 0% and the pest or weed control at 125 g/ha [7, 21] was 0%. The pest or weed control at 500 g/ha ([7]; postemergence) was 0%, the pest or weed control at 125 g/ha [8, 22] was 0% and the pest or weed control at 500 g/ha ([8]; postemergence) was 0%. For the same compound, the pest or weed control at 125 g/ha [9, 23] was 0%, the pest or weed control at 500 g/ha ([9]; postemergence) was 0% and the plant injury at 125 g/ha [10, 24] was 0%. It also gave a pest or weed control at 250 g/ha [11, 15] of 0%, a pest or weed control at 250 g/ha [12, 15] of 0% and a pest or weed control at 250 g/ha (rice (Oryra sativa); [15]) of 0%. It also gave a pest or weed control at 250 g/ha [13, 15] of 0%.

With `CCc1ccccc1NC(=O)[C@H]1C(=O)N(C)C[C@@H]1c1ccc(C(F)(F)F)cc1` [Compound 935] the pest or weed control at 125 g/ha (Kochia (Kochia scoparia) [1]; [15]) was 70%, the pest or weed control at 500 g/ha (Kochia (Kochia scoparia) [1]; visual injury rating about 10 d after treatment, 0 to 100 scale (0 no effect, 100 complete control)) was 80% and the pest or weed control at 125 g/ha ([2]; Postemergence, visual injury after approximately 10 d, 0 to 100 scale where 0 is no effect and 100 is complete control, read-out: Plant response rating, Galium) was 40%. The pest or weed control at 125 g/ha (Kochia (Kochia scoparia) [3]; Postemergence, visual injury after approximately 10 d, 0 to 100 scale where 0 is no effect and 100 is complete control, read-out: Plant response rating, Kochia) was 30%, the pest or weed control at 125 g/ha ([4]; Postemergence, visual injury after approximately 10 d, 0 to 100 scale where 0 is no effect and 100 is complete control, read-out: Plant response rating, Barnyardgrass) was 70% and the pest or weed control at 125 g/ha ([5]; Postemergence, visual injury after approximately 10 d, 0 to 100 scale where 0 is no effect and 100 is complete control, read-out: Plant response rating, Blackgrass) was 60%. It also gave a Corn plant response rating (crop injury, 0 = no effect, 100 = complete kill) at 125 g/ha (corn (Zea mays); 125 g ai/ha, Postemergence, visual injury after approximately 10 d, 0 to 100 scale where 0 is no effect and 100 is complete control) of 40%, a pest or weed control at 125 g/ha ([6]; Postemergence, visual injury after approximately 10 d, 0 to 100 scale where 0 is no effect and 100 is complete control, read-out: Plant response rating, Foxtail, Giant) of 90% and a pest or weed control at 125 g/ha ([7]; Postemergence, visual injury after approximately 10 d, 0 to 100 scale where 0 is no effect and 100 is complete control, read-out: Plant response rating, Pigweed) of 20%. It also gave a pest or weed control at 125 g/ha ([8]; Postemergence, visual injury after approximately 10 d, 0 to 100 scale where 0 is no effect and 100 is complete control, read-out: Plant response rating, Ragweed) of 0%, a pest or weed control at 125 g/ha ([9]; Postemergence, visual injury after approximately 10 d, 0 to 100 scale where 0 is no effect and 100 is complete control, read-out: Plant response rating, Ryegrass, Italian) of 20% and a plant injury at 125 g/ha ([10]; Postemergence, visual injury after approximately 10 d, 0 to 100 scale where 0 is no effect and 100 is complete control, read-out: Plant response rating, Wheat) of 30%. The pest or weed control at 250 g/ha [11, 25] was 0%, the pest or weed control at 250 g/ha [12, 25] was 70% and the pest or weed control at 250 g/ha (rice (Oryra sativa); [25]) was 0%. The pest or weed control at 250 g/ha [13, 25] was 0%.
